Data on 4 compounds can be found in paper PMC5118696, “Identification of inhibitors that dually target the new permeability pathway and dihydroorotate dehydrogenase in the blood stage of Plasmodium falciparum” (Scientific Reports, 2016).

Where two headings read alike, the source gives them in different places.

The target in experiment [1] is T1, PfDHODH (dihydroorotate dehydrogenase) (Plasmodium falciparum, UniProt Q08210).
T1 construct: gene PFF0160c; amino acids 169–569
The experiment is described as follows: DCIP reduction enzyme assay with recombinant PfDHODH; IC50 extrapolated, inhibition did not reach […]. The format is biochemical.

Experiment [2] relates to Hyp1-NLuc Plasmodium falciparum-infected erythrocytes (new permeability pathway, NPP). The experiment can be described thus: microbe, parasite or virus in culture. Conditions: Erythrocyte, 0.33 h, read-out: % of control remaining.
Experiment [3] has the same test system. The experiment is described as follows: microbe, parasite or virus in culture. Conditions: Erythrocyte, 0.33 h, read-out: Mean RLU at 28 min (As % of DMSO control).

T1 sequence (Q08210 169-569): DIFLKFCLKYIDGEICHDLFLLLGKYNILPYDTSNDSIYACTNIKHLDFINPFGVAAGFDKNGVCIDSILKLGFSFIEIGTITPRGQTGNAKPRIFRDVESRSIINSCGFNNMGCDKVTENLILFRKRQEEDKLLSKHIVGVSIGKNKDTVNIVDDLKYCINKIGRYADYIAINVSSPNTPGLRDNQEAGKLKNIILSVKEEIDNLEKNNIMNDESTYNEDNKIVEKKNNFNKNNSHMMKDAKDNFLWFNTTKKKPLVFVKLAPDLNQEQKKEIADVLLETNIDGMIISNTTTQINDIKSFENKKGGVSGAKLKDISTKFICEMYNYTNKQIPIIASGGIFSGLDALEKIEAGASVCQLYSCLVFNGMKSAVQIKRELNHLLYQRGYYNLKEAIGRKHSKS

Broadly, the IC50 is the midpoint of a concentration-inhibition curve. `Cc1ccc(CSCc2ccc(C(=O)NC3CC3)o2)cc1` [MMV007571]: the IC50 in experiment [1] is about 158 µM. Further, the activity at 2 µM in experiment [2] stood at 26%; in experiment [3] it was 22%.

Take `FC(F)(F)c1cccc(Nc2nc3ccccc3nc2Nc2cccc(C(F)(F)F)c2)c1` [MMV665794]: the results for the activity at 2 µM in experiment [2] and in experiment [3] were 109% and 103%, respectively.

Consider `CC(C)(C)C(=O)Nc1ccc(C(=O)Nc2cccc(-c3nc4ccccc4[nH]3)c2)cc1` [MMV665879], for which the activity at 2 µM worked out at 114% in experiment [2] and 103% in experiment [3].

In the case of `CCCN(CCC)CCCNC(=O)c1cc2c(-c3ccc(OC)c(OC)c3)nn(C)c2s1` [MMV000561], the activity at 2 µM amounted to 106% in experiment [2] and 107% in experiment [3].
